According to ChEMBL document CHEMBL3352057, “Novel fluorinated pyrrolo[1,2-a]pyrazine-2,6-dione derivatives: synthesis and anticonvulsant evaluation in animal models of epilepsy” (Bioorg Med Chem, 2014):
The source made the active and inactive calls.

Experiments:
Mus musculus [1] = experiment: Neurotoxicity in 32 mA current-induced seizure albino CF1 mouse model at 100 mg/kg, ip measured after 0.5 hr; format: toxicity, organism-based; parameters: dose 100 mg/kg, route intraperitoneal; settings: in vivo
Rattus norvegicus [2] = experiment: Anticonvulsant activity in Sprague-Dawley rat assessed as protection against maximal electroshock-induced seizures at 30 mg/kg, po measured after 4 hrs; format: functional, organism-based; parameters: dose 30 mg/kg
Mus musculus [3] = experiment: Anticonvulsant activity in albino CF1 mouse assessed as protection against 32 mA current-induced seizures at 100 mg/kg, ip measured after 0.5 hr; format: functional, organism-based; parameters: dose 100 mg/kg
Rattus norvegicus [4] = experiment: Anticonvulsant activity in Sprague-Dawley rat assessed as protection against maximal electroshock-induced seizures at 30 mg/kg, ip measured after 0.5 hr; format: functional, organism-based; parameters: dose 30 mg/kg
Rattus norvegicus [5] = experiment: Neurotoxicity in MES Sprague-Dawley rat model at 30 mg/kg, po measured after 1 hr; format: toxicity, organism-based; parameters: dose 30 mg/kg, route oral; settings: in vivo
Rattus norvegicus [6] = experiment: Neurotoxicity in MES Sprague-Dawley rat model at 30 mg/kg, ip measured after 0.25 hr; format: toxicity, organism-based; parameters: dose 30 mg/kg, route intraperitoneal; settings: in vivo
Rattus norvegicus [7] = experiment: Neurotoxicity in MES Sprague-Dawley rat model at 30 mg/kg, po measured after 0.25 hr; format: toxicity, organism-based; parameters: dose 30 mg/kg, route oral; settings: in vivo
Mus musculus [8] = experiment: Anticonvulsant activity in albino CF1 mouse assessed as protection against 32 mA current-induced seizures at 100 mg/kg, ip measured after 2 hrs; format: functional, organism-based; parameters: dose 100 mg/kg
Mus musculus [9] = experiment: Anticonvulsant activity in albino CF1 mouse assessed as protection against maximal electroshock-induced seizures at 100 mg/kg, ip measured after 1 hr; format: functional, organism-based; parameters: dose 100 mg/kg
Mus musculus [10] = experiment: Neurotoxicity in albino CF1 mouse at 100 mg/kg, ip measured after 0.5 hr; format: toxicity, organism-based; parameters: dose 100 mg/kg, route intraperitoneal; settings: in vivo
Mus musculus [11] = experiment: Anticonvulsant activity in ip dosed albino CF1 mouse assessed as protection against 32 mA current-induced seizures; format: functional
Mus musculus [12] = experiment: Anticonvulsant activity in ip dosed corneal kindled albino CF1 mouse seizure model assessed as time to peak effect; format: functional
Rattus norvegicus [13] = experiment: Anticonvulsant activity in Sprague-Dawley rat assessed as protection against maximal electroshock-induced seizures at 30 mg/kg, po measured after 2 hrs; format: functional, organism-based; parameters: dose 30 mg/kg
Rattus norvegicus [14] = experiment: Anticonvulsant activity in Sprague-Dawley rat assessed as protection against maximal electroshock-induced seizures at 30 mg/kg, po measured after 1 hr; format: functional, organism-based; parameters: dose 30 mg/kg
Mus musculus [15] = experiment: Anticonvulsant activity in ip dosed albino CF1 mouse assessed as protection against subcutaneous metrazol-induced seizures; format: functional
Mus musculus [16] = experiment: Neurotoxicity in albino CF1 mouse at 100 mg/kg, ip measured after 1 hr; format: toxicity, organism-based; parameters: dose 100 mg/kg, route intraperitoneal; settings: in vivo
Rattus norvegicus [17] = experiment: Neurotoxicity in MES Sprague-Dawley rat model at 30 mg/kg, ip measured after 1 hr; format: toxicity, organism-based; parameters: dose 30 mg/kg, route intraperitoneal; settings: in vivo
Mus musculus [18] = experiment: Anticonvulsant activity in albino CF1 mouse assessed as protection against subcutaneous metrazol-induced seizures at 100 mg/kg, ip measured after 4 hrs; format: functional, organism-based; parameters: dose 100 mg/kg
Rattus norvegicus [19] = experiment: Anticonvulsant activity in Sprague-Dawley rat assessed as protection against maximal electroshock-induced seizures at 30 mg/kg, po measured after 0.5 hr; format: functional, organism-based; parameters: dose 30 mg/kg
Mus musculus [20] = experiment: Neurotoxicity in 32 mA current-induced seizure albino CF1 mouse model at 100 mg/kg, ip measured after 0.25 hr; format: toxicity, organism-based; parameters: dose 100 mg/kg, route intraperitoneal; settings: in vivo
Mus musculus [21] = experiment: Anticonvulsant activity in albino CF1 mouse assessed as protection against subcutaneous metrazol-induced seizures at 300 mg/kg, ip measured after 0.5 hr; format: functional, organism-based; parameters: dose 300 mg/kg
Mus musculus [22] = experiment: Anticonvulsant activity in ip dosed albino CF1 mouse assessed as protection against 6 Hz current-induced seizures measured as time to peak effect; format: functional
Mus musculus [23] = experiment: Anticonvulsant activity in ip dosed albino CF1 mouse assessed as protection against maximal electroshock-induced seizures; format: functional
[24] = Protective index, ratio of TD50 for neurotoxicity in ip dosed albino CF1 mouse to ED50 for anticonvulsant activity in ip dosed MES albino CF1 mouse model; format: toxicity, organism-based; settings: in vivo, read-out: Ratio TD50/ED50
Mus musculus [25] = experiment: Neurotoxicity in albino CF1 mouse assessed as loss of righting reflex at 100 mg/kg, ip measured after 0.25 hr; format: toxicity, organism-based; parameters: dose 100 mg/kg, route intraperitoneal; settings: in vivo
Rattus norvegicus [26] = experiment: Neurotoxicity in MES Sprague-Dawley rat model at 30 mg/kg, po measured after 4 hrs; format: toxicity, organism-based; parameters: dose 30 mg/kg, route oral; settings: in vivo
Rattus norvegicus [27] = experiment: Anticonvulsant activity in Sprague-Dawley rat assessed as protection against maximal electroshock-induced seizures at 30 mg/kg, ip measured after 4 hrs; format: functional, organism-based; parameters: dose 30 mg/kg
[28] = Neurotoxicity in ip dosed albino CF1 mouse; format: toxicity, organism-based; settings: in vivo
Rattus norvegicus [29] = experiment: Neurotoxicity in MES Sprague-Dawley rat model at 30 mg/kg, ip measured after 0.5 hr; format: toxicity, organism-based; parameters: dose 30 mg/kg, route intraperitoneal; settings: in vivo
Rattus norvegicus [30] = experiment: Anticonvulsant activity in Sprague-Dawley rat assessed as protection against maximal electroshock-induced seizures at 30 mg/kg, po measured after 0.25 hr; format: functional, organism-based; parameters: dose 30 mg/kg
Rattus norvegicus [31] = experiment: Anticonvulsant activity in Sprague-Dawley rat assessed as protection against maximal electroshock-induced seizures at 30 mg/kg, ip measured after 1 hr; format: functional, organism-based; parameters: dose 30 mg/kg
Rattus norvegicus [32] = experiment: Anticonvulsant activity in Sprague-Dawley rat assessed as protection against maximal electroshock-induced seizures at 30 mg/kg, ip measured after 0.25 hr; format: functional, organism-based; parameters: dose 30 mg/kg
Rattus norvegicus [33] = experiment: Anticonvulsant activity in pilocarpine-induced status prevention Sprague-Dawley rat model assessed as weight change 24 hrs post-first stage 3 seizure of protected rat at 200 mg/kg, ip; format: functional; settings: route intraperitoneal
Mus musculus [34] = experiment: Anticonvulsant activity in ip dosed albino CF1 mouse assessed as protection against maximal electroshock-induced seizures measured as time to peak effect; format: functional
Rattus norvegicus [35] = experiment: Anticonvulsant activity in Sprague-Dawley rat assessed as protection against maximal electroshock-induced seizures at 30 mg/kg, ip measured after 2 hrs; format: functional, organism-based; parameters: dose 30 mg/kg
Mus musculus [36] = experiment: Anticonvulsant activity in albino CF1 mouse assessed as protection against subcutaneous metrazol-induced seizures at 100 mg/kg, ip measured after 0.5 hr; format: functional, organism-based; parameters: dose 100 mg/kg
[37] = Neurotoxicity in ip dosed albino CF1 mouse measured at 0.25 hr post dose; format: toxicity, organism-based; settings: in vivo
Mus musculus [38] = experiment: Neurotoxicity in albino CF1 mouse at 100 mg/kg, ip measured after 0.25 hr; format: toxicity, organism-based; parameters: dose 100 mg/kg, route intraperitoneal; settings: in vivo
Rattus norvegicus [39] = experiment: Neurotoxicity in MES Sprague-Dawley rat model at 30 mg/kg, po measured after 0.5 hr; format: toxicity, organism-based; parameters: dose 30 mg/kg, route oral; settings: in vivo
Mus musculus [40] = experiment: Neurotoxicity in albino CF1 mouse at 100 mg/kg, ip measured after 4 hrs; format: toxicity, organism-based; parameters: dose 100 mg/kg, route intraperitoneal; settings: in vivo
Mus musculus [41] = experiment: Anticonvulsant activity in albino CF1 mouse assessed as protection against 32 mA current-induced seizures at 100 mg/kg, ip measured after 0.25 hr; format: functional, organism-based; parameters: dose 100 mg/kg
Mus musculus [42] = experiment: Anticonvulsant activity in albino CF1 mouse assessed as protection against maximal electroshock-induced seizures at 100 mg/kg, ip measured after 0.25 hr; format: functional, organism-based; parameters: dose 100 mg/kg
Mus musculus [43] = experiment: Anticonvulsant activity in ip dosed corneal kindled albino CF1 mouse seizure model; format: functional
Mus musculus [44] = experiment: Anticonvulsant activity in albino CF1 mouse assessed as protection against maximal electroshock-induced seizures at 100 mg/kg, ip measured after 4 hrs; format: functional, organism-based; parameters: dose 100 mg/kg
Rattus norvegicus [45] = experiment: Neurotoxicity in MES Sprague-Dawley rat model at 30 mg/kg, ip measured after 4 hrs; format: toxicity, organism-based; parameters: dose 30 mg/kg, route intraperitoneal; settings: in vivo
Mus musculus [46] = experiment: Neurotoxicity in 32 mA current-induced seizure albino CF1 mouse model at 100 mg/kg, ip measured after 1 hr; format: toxicity, organism-based; parameters: dose 100 mg/kg, route intraperitoneal; settings: in vivo
Rattus norvegicus [47] = experiment: Neurotoxicity in MES Sprague-Dawley rat model at 30 mg/kg, po measured after 2 hrs; format: toxicity, organism-based; parameters: dose 30 mg/kg, route oral; settings: in vivo
Rattus norvegicus [48] = experiment: Anticonvulsant activity in pilocarpine-induced status prevention Sprague-Dawley rat model assessed as weight change 24 hrs post-first stage 3 seizure of non-protected rat at 200 mg/kg, ip measured after 0.5 hr; format: functional; settings: route intraperitoneal
Mus musculus [49] = experiment: Neurotoxicity in 32 mA current-induced seizure albino CF1 mouse model at 100 mg/kg, ip measured after 4 hrs; format: toxicity, organism-based; parameters: dose 100 mg/kg, route intraperitoneal; settings: in vivo
Mus musculus [50] = experiment: Anticonvulsant activity in albino CF1 mouse assessed as protection against 32 mA current-induced seizures at 100 mg/kg, ip measured after 1 hr; format: functional, organism-based; parameters: dose 100 mg/kg
Rattus norvegicus [51] = experiment: Neurotoxicity in MES Sprague-Dawley rat model at 30 mg/kg, ip measured after 2 hrs; format: toxicity, organism-based; parameters: dose 30 mg/kg, route intraperitoneal; settings: in vivo
Mus musculus [52] = experiment: Anticonvulsant activity in albino CF1 mouse assessed as protection against maximal electroshock-induced seizures at 100 mg/kg, ip measured after 0.5 hr; format: functional, organism-based; parameters: dose 100 mg/kg
Mus musculus [53] = experiment: Anticonvulsant activity in albino CF1 mouse assessed as protection against 32 mA current-induced seizures at 100 mg/kg, ip measured after 4 hrs; format: functional, organism-based; parameters: dose 100 mg/kg
Mus musculus [54] = experiment: Neurotoxicity in 32 mA current-induced seizure albino CF1 mouse model at 100 mg/kg, ip measured after 2 hrs; format: toxicity, organism-based; parameters: dose 100 mg/kg, route intraperitoneal; settings: in vivo

Cl.O=C1NC(=O)[C@@H]2CCCN2[C@H]1c1cccc(C(F)(F)F)c1
-3.8 g: Activity (Rattus norvegicus [33])
-25 g: Activity (Rattus norvegicus [48])
116 µmol/kg: ED50 (Mus musculus [43])
inactive: Activity (Rattus norvegicus [2]) | Activity (Rattus norvegicus [4]) | Activity (Mus musculus [8]) | Activity (Rattus norvegicus [13]) | Activity (Rattus norvegicus [14]) | Activity (Mus musculus [18]) | Activity (Rattus norvegicus [19]) | Activity (Rattus norvegicus [27]) | Activity (Rattus norvegicus [30]) | Activity (Rattus norvegicus [31]) | Activity (Rattus norvegicus [32]) | Activity (Rattus norvegicus [35]) | Activity (Mus musculus [36]) | Activity (Mus musculus [44]) | Activity (Mus musculus [50]) | Activity (Mus musculus [52]) | Activity (Mus musculus [53])
0.25 h: Time (Mus musculus [12]) | Time (Mus musculus [34])
166 µmol/kg: TD50 at 0.25 h [37]
Toxic: Activity (Mus musculus [25]) | Activity (Mus musculus [38])
Non-toxic: Activity (Mus musculus [1]) | Activity (Rattus norvegicus [5]) | Activity (Rattus norvegicus [6]) | Activity (Rattus norvegicus [7]) | Activity (Mus musculus [10]) | Activity (Mus musculus [16]) | Activity (Rattus norvegicus [17]) | Activity (Mus musculus [20]) | Activity (Rattus norvegicus [26]) | Activity (Rattus norvegicus [29]) | Activity (Rattus norvegicus [39]) | Activity (Mus musculus [40]) | Activity (Rattus norvegicus [45]) | Activity (Mus musculus [46]) | Activity (Rattus norvegicus [47]) | Activity (Mus musculus [49]) | Activity (Rattus norvegicus [51]) | Activity (Mus musculus [54])
119 µmol/kg: ED50 (Mus musculus [11])
1.6: selectivity ratio [24]
269 µmol/kg: TD50 [28]
0.5 h: Time (Mus musculus [22])
218 µmol/kg: ED50 (Mus musculus [15])
165 µmol/kg: ED50 (Mus musculus [23])
active: Activity (Mus musculus [3]) | Activity (Mus musculus [9]) | Activity (Mus musculus [21]) | Activity (Mus musculus [41]) | Activity (Mus musculus [42])
